# Measured values: ChEMBL document CHEMBL1201862, “PubChem BioAssay data set” (2004)
# Active and inactive are the calls of the source. Rule as the data show it, for most assays here: actives have a measured EC50 and inactives only a lower limit.
# What was measured:
# [1] = biological target: FAD-linked sulfhydryl oxidase ALR (Homo sapiens, UniProt P55789); experiment: inhibitors of human ALR sulfhydryl oxidase, dose response, biochemical, H2O2 detection, luminescence, cherry-pick (AID 493248)
# cells [2] = type: functional, cell-based
# cells [3] = type: functional, cell-based; remark: listed apart in the source
# [4] = NIH-3T3 fibroblast cytotoxicity, dose response, cytotoxicity control, cell-based, fluorescence, Alamar Blue, secondary assay (AID 2327); type: functional;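 also: NIH-3T3 mouse fibroblasts cultured with fluconazole at 8 µg/mL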
# [5] = C. albicans growth with fluconazole, confirmation, fluorescence, retest (AID 2467); type: functional, cell-based
# [6] = biological target: T1, Polyadenylate-binding protein 1 (Homo sapiens, UniProt P11940); experiment: PABP1 MLLE–PAM2 interaction inhibitors, dose response, miRNA deadenylation inhibitor project, biochemical, fluorescence polarization, Cy5-PAM2 peptide, secondary (AID 602260); type: functional; details: read-out: IC50_Mean
# T1 sequence (P11940 whole entry): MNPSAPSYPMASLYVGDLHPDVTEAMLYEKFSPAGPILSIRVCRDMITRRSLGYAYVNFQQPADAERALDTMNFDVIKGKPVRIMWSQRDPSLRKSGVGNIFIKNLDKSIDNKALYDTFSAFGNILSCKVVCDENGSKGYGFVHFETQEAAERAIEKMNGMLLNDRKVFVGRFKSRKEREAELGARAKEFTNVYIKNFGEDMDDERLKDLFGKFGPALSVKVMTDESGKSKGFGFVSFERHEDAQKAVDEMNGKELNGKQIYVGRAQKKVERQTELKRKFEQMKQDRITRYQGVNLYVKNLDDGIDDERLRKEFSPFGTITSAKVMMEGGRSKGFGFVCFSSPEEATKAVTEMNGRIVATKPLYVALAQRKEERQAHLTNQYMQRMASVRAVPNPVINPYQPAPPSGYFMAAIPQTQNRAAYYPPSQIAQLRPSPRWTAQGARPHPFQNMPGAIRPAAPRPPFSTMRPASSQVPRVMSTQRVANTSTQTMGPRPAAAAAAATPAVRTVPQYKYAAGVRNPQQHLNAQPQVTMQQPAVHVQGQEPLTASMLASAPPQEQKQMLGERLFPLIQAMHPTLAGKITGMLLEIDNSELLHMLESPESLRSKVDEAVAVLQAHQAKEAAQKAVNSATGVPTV
# [7] = biological target: T1, Polyadenylate-binding protein 1; experiment: PABP1 MLLE–PAM2 binding inhibitor potency, dose response, biochemical, fluorescence polarization, FITC-PAM2 peptide (AID 602259); type: functional; details: read-out: IC50_Mean
# H4 = experiment: Luminescence Cell-Based Dose Response HTS to Identify Activators of 5'UTR Stem-Loop Driven Prion Protein mRNA Translation in H4 Neuroglioblastoma Cells. [Related pubchem assays: 1829 (Project Summary), 1814 (Primary HTS)]; type: functional; details: Homo sapiens
# [8] = Luminescence Cell-Based Dose Response HTS to Identify Activators of Luciferase Translation or Activity in H4 […] Cells. [Related pubchem assays: 1829 (Project Summary), 1814 (Primary HTS)]; type: functional
# [9] = Luminescence Cell-Based Dose Confirmation HTS to Identify Activators of 5'UTR Stem-Loop Driven Alpha-Synuclein mRNA Translation in H4 Neuroglioblastoma Cells. [Related pubchem assays: 1829 (Project Summary), 1814 (Primary HTS)]; type: functional
# [10] = biological target: T2, Calpain-2 catalytic subunit (Sus scrofa, UniProt P43367); experiment: pig calpain II inhibitor potency, dose response, biochemical, fluorogenic peptide substrate (AID 1420); type: functional
# T2 sequence (P43367 whole entry): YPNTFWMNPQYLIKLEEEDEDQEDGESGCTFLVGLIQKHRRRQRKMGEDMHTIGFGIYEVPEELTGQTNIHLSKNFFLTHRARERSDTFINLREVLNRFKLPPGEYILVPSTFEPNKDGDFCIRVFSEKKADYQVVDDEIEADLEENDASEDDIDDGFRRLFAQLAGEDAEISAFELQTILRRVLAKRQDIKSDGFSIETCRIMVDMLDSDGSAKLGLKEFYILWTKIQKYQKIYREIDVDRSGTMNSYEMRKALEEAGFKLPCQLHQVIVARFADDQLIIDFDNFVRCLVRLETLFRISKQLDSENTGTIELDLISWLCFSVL
# [11] = biological target: Luciferin 4-monooxygenase (Photinus pyralis, UniProt P08659); experiment: firefly luciferase enzyme inhibitors, dose response, biochemical, luminescence (AID 1891)
# Sequence of Luciferin 4-monooxygenase (P08659 whole entry): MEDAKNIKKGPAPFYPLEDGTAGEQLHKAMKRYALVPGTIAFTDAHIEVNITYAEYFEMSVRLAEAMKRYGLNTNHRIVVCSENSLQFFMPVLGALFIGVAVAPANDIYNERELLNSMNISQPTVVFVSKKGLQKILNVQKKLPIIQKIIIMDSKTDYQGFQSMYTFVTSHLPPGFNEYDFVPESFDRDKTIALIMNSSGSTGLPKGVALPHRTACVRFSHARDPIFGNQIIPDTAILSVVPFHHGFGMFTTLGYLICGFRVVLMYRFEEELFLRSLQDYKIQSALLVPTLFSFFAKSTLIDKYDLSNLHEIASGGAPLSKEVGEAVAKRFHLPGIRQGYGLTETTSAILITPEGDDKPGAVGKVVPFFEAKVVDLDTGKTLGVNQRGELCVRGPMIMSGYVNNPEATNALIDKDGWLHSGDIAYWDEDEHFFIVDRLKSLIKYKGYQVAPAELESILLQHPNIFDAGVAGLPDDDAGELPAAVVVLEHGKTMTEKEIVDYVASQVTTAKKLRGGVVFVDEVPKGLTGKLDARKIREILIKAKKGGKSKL
# [12] = Luminescence Cell-Based Dose Confirmation HTS to Identify Inhibitors of Platelet Dense Granule Release. [Related pubchem assays: 1663 (Primary HTS), 1678 (Summary of Project)]; type: functional
# INS1 = experiment: beta cell apoptosis inhibitors, cytokine rescue, dose response, luminescence, retest (AID 449756); type: functional, cell-based; details: Rattus norvegicus;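 also: cell death triggered by IL-1 beta plus TNF-alpha plus IFN-gamma mixture; protective hits raise ATP signal compared with cytokine alone wells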
# Sequence of FAD-linked sulfhydryl oxidase ALR (P55789 whole entry): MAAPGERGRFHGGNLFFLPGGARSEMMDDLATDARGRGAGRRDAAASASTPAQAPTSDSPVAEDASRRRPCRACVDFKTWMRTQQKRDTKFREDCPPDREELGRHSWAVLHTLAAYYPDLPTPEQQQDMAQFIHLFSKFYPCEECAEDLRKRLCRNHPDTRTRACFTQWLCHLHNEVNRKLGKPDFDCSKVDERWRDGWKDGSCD
smiles,measurement,setting,value
COc1cccc(-c2nnc(S)n2Cc2ccco2)c1OC,AC50,[1],3.65 µM (active)
COC(=O)c1cn(C)c2ccc(S(=O)(=O)N3CCCCC3)cc2c1=O,EC50,cells [2],> 350 µM (not active)
same,EC50,cells [3],> 350 µM (not active)
COCCN(C(=O)CSc1nnc(-c2cccc(C)c2)n1C)c1c(N)n(Cc2ccccc2)c(=O)[nH]c1=O,EC50,[4],> 160 µM (inactive)
same,EC50,[5],> 38 µM (not active)
CCOc1ccc(N2C(=O)CC(Sc3ccccc3C(=O)O)C2=O)c([N+](=O)[O-])c1 (centres undefined),IC50,[6],> 66 µM (inactive)
same,IC50,[7],> 66 µM (inactive)
CCCCNC(=O)c1cc(-c2ccc(F)cc2)on1,EC50,H4,13.1 µM (active)
same,EC50,[8],24.3 µM (active)
same,EC50,[9],11.9 µM (active)
same,EC50,cells [2],8.85 µM (active)
same,EC50,cells [3],45 µM (active)
COc1ccccc1NS(=O)(=O)c1ccc(O)c(NC(S)=NCC2CCCO2)c1 (centres undefined),IC50,[6],> 66 µM (inactive)
same,IC50,[7],> 66 µM (inactive)
COc1cccc(-n2c(SCC(=O)OC(C)C)nnc2-c2cccnc2)c1,IC50,[10],> 50 µM (not active)
CCOc1ccc(NC(O)=C2C(=O)NC(=O)NC2=O)cc1,EC50,[11],1.42 µM (active)
same,EC50,[12],9.93 µM (active)
CC(C)(C)n1nc2c3c(ccc2c1O)C(=O)c1ccccc1C3=O,AC50,INS1,2.98 µM (active)
C=C(C)CC1Nc2ccccc2NC1CC(=C)C (centres undefined),AC50,[1],5.56 µM (active)
O=C(NCc1nc2ccccc2[nH]1)c1c(F)c(F)c(F)c(F)c1F,EC50,cells [2],> 350 µM (not active)
same,EC50,cells [3],> 350 µM (not active)
COc1ccc(Oc2nc(-c3ccccc3)ncc2S(=O)(=O)c2ccccc2)cc1,EC50,[11],> 112 µM (not active)
same,EC50,[12],> 112 µM (not active)
O=C(OCCCCN1C(=O)c2ccccc2C1=O)c1ccc(S(=O)(=O)N2CCCC2)cc1,EC50,[11],> 112 µM (not active)
same,EC50,[12],> 112 µM (not active)
Cc1cc(C)c(O)c(NC(=S)NC(=O)Cc2ccccc2)c1,IC50,[6],> 66 µM (inactive)
same,IC50,[7],> 66 µM (inactive)
Cc1c(N=C(S)NNC(=O)CCC(=O)O)c(=O)n(-c2ccccc2)n1C,EC50,[11],> 112 µM (not active)
same,EC50,[12],> 112 µM (not active)
O=C(c1ccco1)N1CCN(Cc2nc(-c3cccs3)no2)CC1,EC50,[11],> 112 µM (not active)
same,EC50,[12],> 112 µM (not active)
Cc1ccc(CN2[C@@H](CC(C)C)COCCS2(=O)=O)cc1,EC50,cells [2],> 350 µM (not active)
same,EC50,cells [3],72.7 µM (active)
Cc1cccn2c(Nc3ccccc3)c(-c3ccccn3)nc12,AC50,INS1,5.84 µM (active)
Cn1c(N)c(C(=O)COC(=O)c2ncc(Cl)c(Cl)c2Cl)c(=O)n(C)c1=O,IC50,[10],9.79 µM (active)
CCOc1cc(C2C3=C(CCCC3=O)N(CC(=O)O)C3=C2C(=O)CCC3)ccc1OC,IC50,[6],> 66 µM (inactive)
same,IC50,[7],> 66 µM (inactive)
O=C(CCCc1ccccc1)Nc1nnc(C(F)(F)F)s1,EC50,[11],> 112 µM (not active)
same,EC50,[12],> 112 µM (not active)
